Key:
[1] = target: NAD(P)H dehydrogenase [quinone] 1 (Homo sapiens) (UniProt P15559); experiment: Activation of recombinant human C-terminal His-tagged NQO1 (1 to 274 residues) expressed in Escherichia coli assessed as cytochrome c reduction using menadione as substrate in presence of NADPH by spectrophotometry; details: filed as activator, dose 12.5-50 µM
[2] = tested on: HepG2; experiment: Induction of apoptosis in human HepG2 cells assessed as necrotic cells at 1.1 uM incubated for 24 hrs by annexinV-FITC and PI staining based flow cytometry analysis (reference value: 0.35 %); type: functional
[3] = Selectivity index, ratio of GI50 for human HepG2 cells pretreated for 1 hr with ROS scavenger, N-acetyl cysteine followed by incubation with compound for 48 hrs to GI50 for human HepG2 cells measured after 48 hrs by MTT assay; type: functional
[4] = tested on: HepG2; experiment: Induction of mitochondrial membrane potential loss in human HepG2 cells at 2.2 uM incubated for 48 hrs by JC-1 staining based flow cytometry analysis (reference value: 2.06 %); type: functional
[5] = tested on: HepG2; experiment: Induction of apoptosis in human HepG2 cells assessed as late apoptotic cells at 1.1 uM incubated for 24 hrs by annexinV-FITC and PI staining based flow cytometry analysis (reference value: 2.27 %); type: functional
[6] = tested on: HepG2; experiment: Cytotoxicity against human HepG2 cells assessed as reduction in cell growth pretreated for 1 hr with NQO1 inhibitor, dicoumarol followed by incubation with compound for 48 hrs by MTT assay; type: functional
[7] = tested on: HepG2; experiment: Induction of cell cycle arrest in human HepG2 cells assessed as increase in accumulation at S/G2 phase incubated for 24 hrs by PI staining based flow cytometry analysis; type: functional; details: dose 0.75-3 µM
[8] = tested on: A549; experiment: Cytotoxicity against human A549 cells assessed as reduction in cell growth pretreated for 1 hr with NQO1 inhibitor, dicoumarol followed by incubation with compound for 48 hrs by MTT assay; type: functional
[9] = Selectivity index, ratio of GI50 for human HepG2 cells pretreated for 1 hr with NQO1 inhibitor, dicoumarol followed by incubation with compound for 48 hrs to GI50 for human HepG2 cells measured after 48 hrs by MTT assay; type: functional
[10] = tested on: HepG2; experiment: Induction of apoptosis in human HepG2 cells assessed as early apoptotic cells at 4.4 uM incubated for 24 hrs by annexinV-FITC and PI staining based flow cytometry analysis (reference value: 2.65 %); type: functional
[11] = tested on: HepG2; experiment: Induction of ROS generation in human HepG2 cells at 5 uM by DCFH-DA staining based flow cytometry analysis; type: functional, cell-based; details: time 3-5 hrs, TDE = time-dependent effect
[12] = tested on: HepG2; experiment: Induction of apoptosis in human HepG2 cells assessed as viable cells at 4.4 uM incubated for 24 hrs by annexinV-FITC and PI staining based flow cytometry analysis (reference value: 94.73 %); type: functional; details: read-out: Activity
[13] = tested on: HepG2; experiment: Induction of apoptosis in human HepG2 cells assessed as viable cells at 1.1 uM incubated for 24 hrs by annexinV-FITC and PI staining based flow cytometry analysis (reference value: 94.73 %); type: functional; details: read-out: Activity
[14] = tested on: HepG2; experiment: Induction of apoptosis in human HepG2 cells assessed as viable cells at 2.2 uM incubated for 24 hrs by annexinV-FITC and PI staining based flow cytometry analysis (reference value: 94.73 %); type: functional; details: read-out: Activity
[15] = tested on: HepG2; experiment: Induction of apoptosis in human HepG2 cells incubated for 24 hrs by annexinV-FITC and PI staining based flow cytometry analysis; type: functional, cell-based; details: dose 1.1-4.4 µM
[16] = tested on: HepG2; experiment: Induction of apoptosis in human HepG2 cells assessed as late apoptotic cells at 2.2 uM incubated for 24 hrs by annexinV-FITC and PI staining based flow cytometry analysis (reference value: 2.27 %); type: functional
[17] = tested on: MCF7; experiment: Cytotoxicity against NQO1-rich human MCF7 cells assessed as reduction in cell growth incubated for 48 hrs by MTT assay; type: functional
[18] = tested on: A549; experiment: Cytotoxicity against human A549 cells assessed as reduction in cell growth incubated for 48 hrs by MTT assay; type: functional
[19] = tested on: HepG2; experiment: Antitumor activity against human HepG2 cells xenografted in athymic nude mouse assessed as inhibition of tumor growth administered intravenously once every 2 days for 19 days by caliper analysis; type: functional, cell-based; details: dose 10-20 mg/kg, time 19.0 day
[20] = tested on: HepG2; experiment: Induction of apoptosis in human HepG2 cells assessed as necrotic cells at 4.4 uM incubated for 24 hrs by annexinV-FITC and PI staining based flow cytometry analysis (reference value: 0.35 %); type: functional
[21] = Toxicity in athymic nude mouse xenografted with human HepG2 cells assessed as effect on body weight at 10 to 20 mg/kg, iv administered once every 2 days for 19 days; type: organism-based; details: in vivo, 456 h, dose 10-20 mg/kg, time 19 day
[22] = tested on: HepG2; experiment: Induction of apoptosis in human HepG2 cells assessed as early apoptotic cells at 2.2 uM incubated for 24 hrs by annexinV-FITC and PI staining based flow cytometry analysis (reference value: 2.65 %); type: functional
[23] = tested on: HepG2; experiment: Induction of apoptosis in human HepG2 cells assessed as viable cells at 2.2 uM incubated for 24 hrs in presence of dicoumarol by annexinV-FITC and PI staining based flow cytometry analysis (reference value: 94.73 %); type: functional; details: read-out: Activity
[24] = target: NAD(P)H dehydrogenase [quinone] 1 (Homo sapiens) (UniProt P15559); experiment: Substrate activity at recombinant human C-terminal His-tagged NQO1 (1 to 274 residues) expressed in Escherichia coli assessed as enzyme activity by measuring oxidation of NADPH incubated for 5 mins measured per micromol of enzyme every 5 sec for 1 mins by UV-visible spectrophotometry
[25] = Selectivity index, ratio of GI50 for human L02 cells to GI50 for human HepG2 cells measured after 48 hrs by MTT assay; type: toxicity; details: L02 cells and HepG2 cells, read-out: RatioGI50
[26] = tested on: HepG2; experiment: Cytotoxicity against human HepG2 cells assessed as reduction in cell growth pretreated for 1 hr with ROS scavenger, N-acetyl cysteine followed by incubation with compound for 48 hrs by MTT assay; type: functional
[27] = tested on: HepG2; experiment: Induction of apoptosis in human HepG2 cells assessed as necrotic cells at 2.2 uM incubated for 24 hrs in presence of dicoumarol by annexinV-FITC and PI staining based flow cytometry analysis (reference value: 0.35 %); type: functional
[28] = Selectivity index, ratio of GI50 for human A549 cells pretreated for 1 hr with NQO1 inhibitor, dicoumarol followed by incubation with compound for 48 hrs to GI50 for human A549 cells measured after 48 hrs by MTT assay; type: functional
[29] = tested on: HepG2; experiment: Induction of apoptosis in human HepG2 cells assessed as late apoptotic cells at 4.4 uM incubated for 24 hrs by annexinV-FITC and PI staining based flow cytometry analysis (reference value: 2.27 %); type: functional
[30] = tested on: HepG2; experiment: Antitumor activity against human HepG2 cells xenografted in athymic nude mouse assessed as inhibition of tumor growth at 10 mg/kg, iv administered once every 2 days for 19 days by caliper analysis relative to control; type: functional; details: 456 h, time 19 day
[31] = tested on: HepG2; experiment: Induction of apoptosis in human HepG2 cells assessed as necrotic cells at 2.2 uM incubated for 24 hrs by annexinV-FITC and PI staining based flow cytometry analysis (reference value: 0.35 %); type: functional
[32] = tested on: HepG2; experiment: Induction of mitochondrial membrane potential loss in human HepG2 cells at 1.1 uM incubated for 48 hrs by JC-1 staining based flow cytometry analysis (reference value: 2.06 %); type: functional
[33] = Cytotoxicity against human L02 cells assessed as reduction in cell growth incubated for 48 hrs by MTT assay; type: cell-based

Which results are given for `COc1ccc(C2CC(=O)NC3=C2C(=O)C(=O)c2ccccc23)cc1O` (stereo not drawn)?
Activity [1]: Dose-dependent effect; Activity [2]: 0.77%; RatioGI50 [3]: 2; Activity [4]: 11.03%; Activity [5]: 8.9%; GI50 [6]: 4.93 µM; Activity [7]: Dose-dependent effect; GI50 [8]: 5.3 µM; RatioGI50 [9]: 2; Activity [10]: 14.96%; Activity [11]: Tde; viability at 4.4 µM [12]: 66.5%; viability at 1.1 µM [13]: 82.4%; viability at 2.2 µM [14]: 76%; Activity [15]: Dose-dependent effect; Activity [16]: 12.2%; GI50 [17]: 3.06 µM; GI50 [18]: 3.13 µM; TGI [19]: Dose-dependent effect; Activity [20]: 1.07%; Activity [21]: Non-Toxic; Activity [22]: 10.85%; viability at 2.2 µM [23]: 81.6%; Activity [24]: 2770 µmol/min; selectivity ratio at 48 h [25]: 2; GI50 [26]: 5.65 µM; Activity [27]: 0.69%; RatioGI50 [28]: 2; Activity [29]: 17.46%; inhibition in vivo at 10 mg/kg [30]: 27.2%; Activity [31]: 0.93%; Activity [32]: 7.42%; GI50 at 48 h [33]: 4.36 µM

Reference: ChEMBL document CHEMBL4765339, “Design, synthesis, and biological evaluation of 4-substituted-3,4-dihydrobenzo[h]quinoline-2,5,6(1H)-triones as NQO1-directed antitumor agents” (Eur J Med Chem, 2020)
